Consider one molecule from PMC5588548, “Suramin Inhibits Osteoarthritic Cartilage Degradation by Increasing Extracellular Levels of Chondroprotective Tissue Inhibitor of Metalloproteinases 3” (Molecular Pharmacology, 2017).

The target of series [1] is T1, human TIMP-3 (Homo sapiens, UniProt P35625).
T1 construct: made in house; host or cells: human embryonic kidney 293 cells
T1 sequence (P35625 24-211): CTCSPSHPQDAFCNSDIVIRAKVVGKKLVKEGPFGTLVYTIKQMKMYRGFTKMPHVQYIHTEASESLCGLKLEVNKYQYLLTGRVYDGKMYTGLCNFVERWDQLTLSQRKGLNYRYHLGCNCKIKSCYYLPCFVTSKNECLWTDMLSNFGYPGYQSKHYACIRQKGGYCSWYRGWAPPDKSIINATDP
The series is described as follows: Solid-phase binding of TIMP-3 to immobilized suramin or analogs (ELISA). Particulars: TIMP-3 0.4–50 nM. The procedure:
Glycosaminoglycan-binding ELISA plates (BD Life Sciences, Swindon, UK) were coated with suramin or its analogs (10 µg/ml in Tris-buffered saline, 18 hours, 25°C) ([Mahoney et al., 2004]) and wells were blocked with 0.2% gelatin in PBS (1 hour, 37°C). Wells were washed in PBS containing 0.1% Tween 20 after this and every subsequent step. Purified FLAG-tagged human TIMP-3 (0.4–50 nM) in blocking solution was applied to wells (3 hours, 37°C), and binding was detected with anti-FLAG M2 primary antibody and anti-mouse horseradish peroxidase–conjugated secondary antibody. 3,3′,5,5′-Tetramethylbenzidine (Becton Dickinson, Swindon, UK) substrate was added, the reaction was stopped when appropriate by adding 2 N H2SO4, and absorbance at 450 nm was measured using a FLUOstar Omega microplate reader (BMG Labtech, Aylesbury, Buckinghamshire, UK). Data (mean ± S.E., n = 3 technical repeats) were analyzed using Prism 7.0b software (GraphPad Software, La Jolla, CA) and EC50 values determined using a one-site specific binding model. Flat planar dimensions of suramin analogs were estimated using ICM-Pro software (Molsoft LLC, San Diego, CA).
In general terms: In an ELISA, binding on a coated surface is turned into a signal by an enzyme label.

The target in series [2] is T2, TIMP-3 binding to LRP1 (Homo sapiens, UniProt P35625).
T2 construct: purchased BioMac, Leipzig, Germany
T2 sequence (P35625 24-211): T1 sequence (P35625 24-211)
The series can be described thus: TIMP-3 binding to immobilized LRP1 (ELISA). Particulars: TIMP-3 preincubated with suramin 200 µg/ml, 1 hour, 37°C. The procedure: LRP1 (5 nM; BioMac, Leipzig, Germany) was coated (overnight, 4°C) onto medium-binding ELISA plates (Greiner Bio-One, Stonehouse, UK) in 20 mM HEPES, 150 mM NaCl, 5 mM CaCl2, and 0.05% Tween 20, pH 7.4. Wells were blocked with 10% bovine serum albumin (BSA) in Tris HCl, NaCl, and CaCl2 (TNC) buffer (50 mM Tris HCl, pH 7.5, 150 mM NaCl, 10 mM CaCl2, and 0.05% Brij 35). Wells were washed in TNC buffer containing 0.1% Tween 20 after this and every subsequent step. FLAG-tagged human TIMP-3 (0.4–50 nM), either alone or preincubated with suramin (200 μg/ml, 1 hour, 37°C), was applied to wells in TNC buffer containing 5% BSA (3 hours, 25°C). Binding was detected with anti-FLAG M2 primary antibody and anti-mouse horseradish peroxidase–conjugated secondary antibody in the same buffer. 3,3′,5,5′-Tetramethylbenzidine (Becton Dickinson) substrate was added, the reaction was stopped when appropriate by adding 2 N H2SO4, and absorbance at 450 nm was measured using a FLUOstar Omega microplate reader. Data (mean ± S.D., n = 3) were analyzed using Prism 7.0b software.

Series [3] deals with TIMP-3 mRNA. The series can be described thus: TIMP-3 mRNA analysis in HTB94 cells (quantitative PCR). In kind it is cell-based. Conditions: suramin 0–250 µg/ml, 18 hours. The procedure:
(§1) HTB94 chondrosarcoma cells or primary human chondrocytes (1 × 10^6 cells) were treated in triplicate with 0–250 µg/ml suramin in serum-free DMEM for 18–48 hours. Total RNA was isolated from cells using an RNeasy mini kit (Qiagen, Crawley, UK) and cDNA was synthesized (reverse transcriptase kit; Applied Biosystems, Foster City, CA). Levels of TIMP-1, TIMP-2, TIMP-3, LRP1, and RPLP0 internal reference mRNA were quantified by real-time polymerase […] chain reaction on a Corbett Rotor-Gene 6000 (Corbett Life Science, Mortlake, NSW, Australia) using TaqMan Fast Universal PCR Master Mix (Applied Biosystems) and TaqMan probes (Applied Biosystems) Hs01092512_g1 for TIMP-1, Hs00234278_m1 for TIMP-2, Hs00165949_m1 for TIMP-3, Hs00233856_m1 for LRP1, and Hs99999902_m1 for RPLP0. The ΔΔ threshold cycle values (mean ± S.D., n = 3 technical replicates) are shown relative to control untreated HTB94 cells (defined as 1).

Series [4] deals with LRP1 mRNA. The series is described as follows: LRP1 mRNA analysis in HTB94 cells (quantitative PCR). In kind it is cell-based. Particulars: 18 hours. The protocol:
as §1

Series [5] concerns LRP1 ectodomain. The series is described as follows: Shedding of LRP1 ectodomain into medium of HTB94 cells (immunoblot). Conditions: suramin 50–250 µg/ml, 30 hours. In kind it is cell-based. For orientation: Immunoblotting shows a protein as a band on a membrane.
For series [6], the target named is T3, MMP-2 (Homo sapiens, UniProt P08253).
T3 sequence (P08253 110-660): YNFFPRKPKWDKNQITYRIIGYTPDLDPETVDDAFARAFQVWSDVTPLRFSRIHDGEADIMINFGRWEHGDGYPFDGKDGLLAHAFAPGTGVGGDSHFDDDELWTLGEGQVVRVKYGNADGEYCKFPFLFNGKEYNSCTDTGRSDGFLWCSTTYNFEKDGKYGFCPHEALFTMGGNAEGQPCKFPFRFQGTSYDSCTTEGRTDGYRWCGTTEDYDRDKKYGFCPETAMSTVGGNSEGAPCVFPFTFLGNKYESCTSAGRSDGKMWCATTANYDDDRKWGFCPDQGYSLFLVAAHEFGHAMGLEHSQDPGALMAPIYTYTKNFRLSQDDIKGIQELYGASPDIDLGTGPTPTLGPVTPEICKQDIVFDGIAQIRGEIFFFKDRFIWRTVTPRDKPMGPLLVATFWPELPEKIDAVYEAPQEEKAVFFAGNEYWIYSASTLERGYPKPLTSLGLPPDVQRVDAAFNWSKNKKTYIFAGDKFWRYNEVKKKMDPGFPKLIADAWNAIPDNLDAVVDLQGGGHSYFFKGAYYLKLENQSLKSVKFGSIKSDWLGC
The series can be described thus: MMP-2 activity in vitro (data not shown). Format: biochemical.

Series [7] has as its system MMP-9. Set-up: method as in Taniguti et al., 2012. Particulars: ref Taniguti et al., 2012; cited from earlier work.
Details of series [8]: method as in Voogd et al., 1993. Conditions: ref Voogd et al., 1993; cited from earlier work.

Regarding `Cc1ccc(C(=O)Nc2ccc(S(=O)(=O)O)c3cc(S(=O)(=O)O)cc(S(=O)(=O)O)c23)cc1NC(=O)c1cccc(NC(=O)Nc2cccc(C(=O)Nc3cc(C(=O)Nc4ccc(S(=O)(=O)O)c5cc(S(=O)(=O)O)cc(S(=O)(=O)O)c45)ccc3C)c2)c1` [suramin], the EC50 in series [1] (plates coated with 10 µg/ml compound, one-site specific binding model, mean ± S.E., n = 3) was 1.9 ± 0.21 nM. For the same molecule, the dissociation constant (Kd) in series [1] (solid-phase binding assay, plates coated 10 µg/ml, read-out: KD value for TIMP-3 binding to immobilized compound) is 1.9 ± 0.2 nM. Moreover, the “TIMP-3 binding to immobilized LRP1” value in series [2] was “abolished”. Moreover, in series [3], the “TIMP-3 mRNA levels” value is reported as “not associated with any significant change”. The “increase in expression of LRP1 mRNA” value in series [4] (suramin 250 µg/ml) is recorded as 3 fold. The “expression of LRP1 mRNA” value in series [4] (suramin up to 200 µg/ml) is listed as “unaffected”. In addition, the “shedding of LRP1 ectodomain into the medium” value in series [5] is given as “not affected”. In series [6], the “MMP-2 activity in vitro” value is on record as “inhibit MMP-2 activity”. For the same molecule, in series [7], the MMP-9 activity result was “inhibit MMP-9 activity”. Moreover, the oral bioavailability result in series [8] is reported as “not orally bioavailable”.

As usually defined, the EC50 is the concentration needed to bring the measured effect to its halfway point. Low values mean a more potent agent, high ones a less potent agent. As usually defined, the Kd is the concentration at which binding is half-saturated.
